Legend:
[1] = Caco-2 bidirectional transport permeability; format: in vitro ADME, human; conditions: human
Protocol: (§1) The passage number of cells used in this study was 39. Non-specific binding to the device surfaces and the aqueous solubility of test compounds were tested before the transport experiment. […] The integrity of the monolayer was estimated by measuring transepithelial electrical resistance (TEER). Only the monolayers with TEER over 150 Ω were used for the studies.

[2] = system: Caco-2 cell monolayers; assay: Caco-2 bidirectional transport permeability; format: in vitro ADME, human
Protocol: as §1

[3] = Plasma protein binding (RED), human plasma; format: in vitro ADME; conditions: mouse, rat, dog, monkey, human, plasma, pH 7.4; all species, all cases (data not shown); read-out: post-dialysis recovery
Protocol: (§2) The plate containing plasma and buffer was equilibrated for 6 h in a 37°C water shaking bath. After incubation, aliquots of buffer and plasma (20 µL) on both sides were collected and precipitated using organic solvents. […] The post-dialysis recovery of amdizalisib was also measured.

[4] = system: plasma proteins; assay: Plasma protein binding (RED), human plasma; format: in vitro ADME
Protocol: as §2

[5] = target: T1, OATP1B1 (Homo sapiens, UniProt Q9Y6L6); assay: OATP1B1 inhibition, β-estradiol 17-(β-D-glucuronide) uptake in transfected HEK293 cells
T1 sequence (Q9Y6L6 1-691): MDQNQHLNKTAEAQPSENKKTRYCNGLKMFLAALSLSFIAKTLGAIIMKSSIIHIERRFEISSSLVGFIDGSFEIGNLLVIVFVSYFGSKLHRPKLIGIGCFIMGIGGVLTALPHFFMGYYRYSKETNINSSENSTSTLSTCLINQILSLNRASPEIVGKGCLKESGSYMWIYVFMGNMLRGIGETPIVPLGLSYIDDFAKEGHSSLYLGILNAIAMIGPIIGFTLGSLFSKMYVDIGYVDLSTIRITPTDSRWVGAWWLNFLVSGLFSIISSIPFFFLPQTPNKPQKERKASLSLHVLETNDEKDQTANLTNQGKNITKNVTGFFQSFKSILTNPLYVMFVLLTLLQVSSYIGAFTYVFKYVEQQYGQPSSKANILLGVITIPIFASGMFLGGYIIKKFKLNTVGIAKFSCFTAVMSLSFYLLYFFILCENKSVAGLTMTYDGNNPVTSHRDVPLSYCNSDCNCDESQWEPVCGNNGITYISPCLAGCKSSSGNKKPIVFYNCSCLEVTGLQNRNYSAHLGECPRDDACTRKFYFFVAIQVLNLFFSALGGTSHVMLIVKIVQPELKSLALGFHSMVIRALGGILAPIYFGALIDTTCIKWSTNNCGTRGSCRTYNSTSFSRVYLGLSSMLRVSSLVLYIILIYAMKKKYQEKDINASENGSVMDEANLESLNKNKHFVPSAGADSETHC
Protocol: The pre-incubation solutions were removed, and incubation solutions containing the inhibitors and probe substrates (or transport buffer containing an equal volume of vehicle control and probe substrates) were added and incubated at 37°C for 2 min (5 min for OATP1B3). The probe substrate for OAT1 was 4-aminohippuric acid (10 μM), for OAT3 was estrone 3-sulfate (10 μM), for OCT2 was metformin (100 μM), for OATP1B1 was β-estradiol 17-(β-D-glucuronide) (5 μM), for OATP1B3 was β-estradiol 17-(β-D-glucuronide) (10 μM), and for MATE1 and MATE2-K was tetraethylammonium (10 μM). After incubation, cells were washed three times with ice-cold transport buffer (25 mM HEPES, pH 7.4, pH 8.0 for overexpressing MATE1 and MATE2-K HEK293 cells) and lysed in distilled water. The concentrations of probe substrates were determined by LC-MS/MS, and a BCA Kit (Solarbio ®Life Sciences, Beijing, China) was used to determine the protein content in the cell lysate.
where C is the concentration of the drug in the cell lysate (nM), P is the protein concentration of the cell lysate (mg/mL), and T is the incubation time (minute). Uptake ratetest compound is the uptake rate of the substrate in the presence of the test compound. Uptake ratevehicle control is the uptake rate of the substrate in the presence of the vehicle control. Uptake ratepassive is the uptake rate of the substrate in the presence of the positive inhibitor at the top test concentration.

[6] = set-up: method as in Cao et al., 2023; conditions: single oral 30 mg, high-fat diet, ref Cao et al., 2023, cited from earlier work

Work on C[C@H](Nc1ncnc(N)c1C#N)c1cc2ncc(Cl)n2nc1-c1ccccc1 [Amdizalisib] yielded a Papp A→B at 30 min, 10 µM [1] of 45.7 ×10⁻⁶ cm/s, a Papp A→B at 60 min, 5 µM [1] of 38.5 ×10⁻⁶ cm/s and a Papp A→B at 60 min, 10 µM [1] of 39.9 ×10⁻⁶ cm/s. The Papp A→B at 60 min, 20 µM [1] was 40.9 ×10⁻⁶ cm/s, the Papp A→B at 60 min, 40 µM [1] was 36.3 ×10⁻⁶ cm/s and the Papp A→B at 60 min, 60 µM [1] was 42.2 ×10⁻⁶ cm/s. It also gave a Papp A→B at 90 min, 10 µM [1] of 38.9 ×10⁻⁶ cm/s, a Papp A→B at 120 min, 10 µM [1] of 36.9 ×10⁻⁶ cm/s and a Papp A→B at 150 min, 10 µM [1] of 37.1 ×10⁻⁶ cm/s. For the same molecule, the Papp B→A at 30 min, 10 µM [1] was 69.5 ×10⁻⁶ cm/s, the Papp B→A at 60 min, 5 µM [1] was 50.4 ×10⁻⁶ cm/s and the Papp B→A at 60 min, 20 µM [1] was 52.3 ×10⁻⁶ cm/s. It also gave a Papp B→A at 60 min, 40 µM [1] of 45.4 ×10⁻⁶ cm/s, a Papp B→A at 60 min, 60 µM [1] of 47.9 ×10⁻⁶ cm/s and a Papp B→A at 60 min, 80 µM [1] of 45.4 ×10⁻⁶ cm/s. For the same molecule, the Papp B→A at 90 min, 10 µM [1] was 57.1 ×10⁻⁶ cm/s, the Papp B→A at 120 min, 10 µM [1] was 56 ×10⁻⁶ cm/s and the Papp B→A at 150 min, 10 µM [1] was 55.6 ×10⁻⁶ cm/s. For the same molecule, the Papp A→B at 60 min, 80 µM ([1]; substrate 80 µM, 60 min) was 47.7 ×10⁻⁶ cm/s, the Transporter substrate [2] was “Not a substrate of P-gp and BCRP” and the recovery at 6 h [3] was over 90%. For the same molecule, the “Binding fraction to plasma proteins, Human” value (from here on “Binding fraction”) ([4]; 0.1 µM) was 94.0 ± 0.86%, the “Binding fraction” value ([4]; 1 µM) was 92.8 ± 0.54% and the “Binding fraction” value ([4]; 20 µM) was 92.4 ± 0.15%. The “stability in plasma post-incubation” value ([4]; all species, 37°C 6 h (data not shown)) was over 90%, the fraction unbound at 6 h ([4]; plasma, pH 7.4, all species (mouse, rat, dog, monkey, human), 0.1–20 μM) was about 0.1 and the IC50 [5] was 7.27 µM. It also gave a Percentage transported ([5]; human, 2 min, 0.3 μM, pH 7.4) of 113%, an Uptake rate ([5]; human, 2 min, 0.3 μM, pH 7.4) of 59.0±1.42 pmol/mg protein/min and a Percentage transported ([5]; human, 2 min, 1 μM, pH 7.4) of 105%. It also gave an Uptake rate ([5]; human, 2 min, 1 μM, pH 7.4) of 55.1±2.95 pmol/mg protein/min, a Percentage transported ([5]; human, 2 min, 3 μM, pH 7.4) of 86.5% and an Uptake rate ([5]; human, 2 min, 3 μM, pH 7.4) of 47.2±3.13 pmol/mg protein/min. The Percentage transported ([5]; human, 2 min, 10 μM, pH 7.4) was 32.7%, the Uptake rate ([5]; human, 2 min, 10 μM, pH 7.4) was 19.3±4.10 pmol/mg protein/min and the Percentage transported ([5]; human, 2 min, 30 μM, pH 7.4) was 8.04%. For the same molecule, the Percentage transported ([5]; human, 2 min, 100 μM, pH 7.4) was -3.17%, the Uptake rate ([5]; human, 2 min, 100 μM, pH 7.4) was 1.46±0.141 pmol/mg protein/min and the “calculated R value (OATP1B1)” value ([5]; human, 2 min, pH 7.4) was 3.8. The inhibition at 2 min, 0.3 µM ([5]; human, pH 7.4) was -12.5%, the inhibition at 2 min, 1 µM ([5]; human, pH 7.4) was -4.64% and the inhibition at 2 min, 3 µM ([5]; human, pH 7.4) was 13.5%. For the same molecule, the inhibition at 2 min, 10 µM ([5]; human, pH 7.4) was 67.3%, the inhibition at 2 min, 30 µM ([5]; human, pH 7.4) was 92% and the inhibition at 2 min, 100 µM ([5]; human, pH 7.4) was 103%. The “median Tmax” value ([6]; Chinese healthy volunteers) was 4 h, the “effect of food on extent of oral absorption (AUC)” value [6] was “no significant effect” and the “reduction of geometric mean of Cmax after food intake” value [6] was 36%.
